The data set can be described thus: gradient 5% acetonitrile 3 min, to 50% in 2 min, to 85% in 15 min, held 3 min, 100 µL/min. Particulars: column: Zorbax Extend-C18 2.1 x 50 mm; eluents: water / acetonitrile, 0.1% formic acid. A digest of the protocol:
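Values are retention times taken from adduct peaks that software picked and an analyst inspected. The pure standards were run as mixtures of ~100 molecules on HPLC linked to a quadrupole time-of-flight mass spectrometer, in positive and negative ionization mode. A Zorbax Extend-C18 column (2.1 × 50 mm, 1.8 μm) was used at 100 μL/min with water and acetonitrile, each including 0.1% formic acid.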
For `COc1ccc(OC)c(S(=O)(=O)N2[C@H]3CC[C@@H]2c2cnc(-c4ccccc4)nc2C3)c1`, the RP-LC retention time was found to be 1020 s.

For the molecule `O=C(c1ccccn1)N1CCN(C(=O)c2nnn3c2COC(c2ccc(Cl)cc2)C3)CC1` (stereo not drawn), the RP-LC retention time stood at 784 s.

`Cc1cccc(NC(=O)Nc2nccn(-c3ccc(C(C)C)cc3)c2=O)c1` registered an RP-LC retention time of 1190 s.

Molecule `CCc1ccc(S(=O)(=O)Nc2ccc3nc(N4CCN(CC)CC4)cc(C(=O)O)c3c2)cc1` showed an RP-LC retention time of 610 s.

`COc1ccc(CNC(=O)C2CCCN(c3nc4ccsc4c(=O)n3-c3ccc(F)cc3)C2)cc1` (stereo not drawn) returned an RP-LC retention time of 857 s.

As to `Cc1cc(C)cc(-n2ccn(Cc3nc(-c4cccc(F)c4)no3)c(=O)c2=O)c1`, the RP-LC retention time worked out at 901 s.

In turn, `Cc1ccc(NC(=O)N2CCCC(Cn3cnc4cccnc43)C2)cc1F` (stereo not drawn) showed an RP-LC retention time of 718 s.

Molecule `O=C(Nc1ccccc1)N1CCc2nc[nH]c2C1` registered an RP-LC retention time of 560 s.

In turn, `CC(C)c1cccc(NC(=O)Cn2c(=O)cc(-c3nc(C4CC4)no3)c3ccccc32)c1` returned an RP-LC retention time of 1080 s.

The molecule `CCCn1cc(C(=O)Nc2ccc(OC)cc2)c(=O)c2ccc(C)nc21` yielded an RP-LC retention time of 1100 s.

`Cc1ccccc1CC(=O)NCc1ccc2c(c1)ncn2C(C)C` returned an RP-LC retention time of 618 s.

`CN(C)CCC[C@@]1(c2ccc(F)cc2)OCc2cc(C#N)ccc21` had an RP-LC retention time of 724 s.

Regarding `Cc1cc(C)c2c(N3CCOCC3)nc(C(=O)NCc3cccc(F)c3)nc2n1`, the RP-LC retention time was 639 s.

Consider `COc1cccc(-c2nnc3sc(CN4CCc5ccccc5C4)cn23)c1`, for which the RP-LC retention time worked out at 582 s.

`O=C(NCCC1=CCCCC1)C1CCCN(c2ncnc3c2oc2ccccc23)C1` (stereo not drawn) showed an RP-LC retention time of 872 s.

`CCc1noc(C2(NC(=O)c3cccc(N(C)C)c3)CCCCC2)n1` came in with an RP-LC retention time of 867 s.

Molecule `COc1ccc(OC)c(NC(=O)Cn2nc3cc(-c4ccccc4)nc(C)n3c2=O)c1` came in with an RP-LC retention time of 965 s.

In turn, `CCN1C(=O)COc2ccc(-c3nc(NC(=O)C4CCCCC4)sc3C)cc21` showed an RP-LC retention time of 652 s.

Regarding `CCCCCn1c(=O)c2ccccc2n(Cc2nc(-c3ccc(OC(F)(F)F)cc3)no2)c1=O`, the RP-LC retention time was found to be 739 s.

`O=C(Nc1ccccc1-c1nc2ccccc2[nH]1)c1ccccc1Cl` gave an RP-LC retention time of 871 s.

`COc1cccc(-c2noc(C3CCCN3C(=O)Nc3ccc(C)cc3Cl)n2)c1` (stereo not drawn) showed an RP-LC retention time of 1120 s.

`COCCN1CCC2(CC1)CN(Cc1cc(C)ccc1C)Cc1ccccc1O2` displayed an RP-LC retention time of 718 s.

Regarding `CCCN(CC1CCOC1)C(=O)Nc1cccc(C)c1C` (stereo not drawn), the RP-LC retention time came to 818 s.

Take `COc1ccc(CNC(=O)C2=C3CCCN3c3ccc(F)cc3S2(=O)=O)c(OC)c1`: the RP-LC retention time was 870 s.

As to `O=C(Nc1ccc2c(c1)OCCO2)N1CCN(c2nc3ccccc3n(Cc3ccccc3)c2=O)CC1`, the RP-LC retention time was 1010 s.

For `CC(C)(C)NC(=O)N1CCC(c2nc(CCNC(=O)C3CC3)cs2)CC1`, the RP-LC retention time was determined as 675 s.

For `Cc1ccc(C2Cn3cnc(C(=O)N4CCC(C(=O)NCc5ccccc5)CC4)c3CO2)cc1` (stereo not drawn), the RP-LC retention time came to 796 s.

As to `COC(=O)c1cn(CC(=O)NCc2ccc3c(c2)OCCCO3)c2ccccc12`, the RP-LC retention time was 852 s.

With `CN(C)C(=O)c1cc2c(s1)CCC(C(=O)N1CCN(c3ccccn3)CC1)C2` (stereo not drawn), the RP-LC retention time amounted to 570 s.

The molecule `O=C(NC1CC1)c1n[nH]c2c1CCCCCC2` showed an RP-LC retention time of 719 s.

`Cc1nc(NC(=O)Cn2nc(-n3cccn3)ccc2=O)sc1C(=O)N(C)C` had an RP-LC retention time of 585 s.

Regarding `CCn1c(C(=O)N2CCN(c3ccccc3F)CC2)cc2c(-c3cccs3)nn(-c3ccccc3)c21`, the RP-LC retention time came out at 1270 s.

`CCc1ccc(N2C(=O)C3N=NN(Cc4nc(-c5cccc(C(F)(F)F)c5)no4)C3C2=O)cc1` (stereo not drawn) had an RP-LC retention time of 1130 s.

The molecule `COC[C@@H]1CN(c2cnccn2)C[C@H]1C(=O)NCc1cc(C)nn1C` came in with an RP-LC retention time of 563 s.

Turning to `O=C(Cc1nnc(-c2ccc3ncccc3c2)o1)N1CCN(C2CCCCC2)CC1`, the RP-LC retention time came to 574 s.

`O=C(NCCN1CCCC1)c1c2c(nc3ccccc13)C(=O)N(C1CCCCC1)C2`: the RP-LC retention time is 598 s.

Molecule `COc1cc(C(=O)N2CCC(CC(=O)N3CCN(c4ccccn4)CC3)CC2)cc(OC)c1OC` came in with an RP-LC retention time of 595 s.

`CC(C)CC(=O)N1CCCC1c1nc2ccccc2s1` (stereo not drawn) came in with an RP-LC retention time of 887 s.

`Cc1ccc2c(C(=O)Nc3ccc(N4CCOCC4)cc3)cc(NC(=O)C3CCC3)cc2n1` registered an RP-LC retention time of 630 s.

`Cc1cc(=O)n(Cc2cccc(F)c2)c(N2CCSCC2)n1` showed an RP-LC retention time of 946 s.

`O=C(NCc1ccccn1)C1CCCN(c2ncnc3c2oc2ccccc23)C1` (stereo not drawn): the RP-LC retention time is 579 s.

Molecule `CC(=O)Nc1ccc(NC(=O)C2CCN(S(=O)(=O)c3ccc4c(c3)CCCC(=O)N4)CC2)cc1` showed an RP-LC retention time of 644 s.

On to `COc1ccc2c(c1)C1(CCN(C(=O)c3ccc(C)c(F)c3)C1)C(=O)N2` (stereo not drawn), for which the RP-LC retention time amounted to 745 s.

As for `O=C(CC1CCN(C(=O)c2ccc3oc(-c4ccccc4)nc3c2)CC1)NCc1ccco1`, the RP-LC retention time came out at 793 s.

Regarding `O=C(Nc1ccc(Cl)cc1)Nc1cccc2nsnc12`, the RP-LC retention time stood at 1100 s.

For `CCc1nc(-c2csc(S(=O)(=O)N3CCC(C(=O)NCc4ccccn4)CC3)c2)no1`, the RP-LC retention time worked out at 654 s.

Regarding `Fc1ccccc1-c1noc(N2CCN(c3ccccn3)CC2)n1`, the RP-LC retention time was found to be 649 s.

For the molecule `Cc1ccc(NC(=O)Cn2ncc3c(c2=O)N(CC2CC2)C(=O)CS3)c(C)c1`, the RP-LC retention time stood at 782 s.

Regarding `CCC(=O)Nc1ccc(-n2cnc(C(=O)NCc3ccc(F)cc3Cl)c2)nc1`, the RP-LC retention time turned out to be 762 s.

`COc1ccc(-c2cc3n(n2)CCCN(C(=O)c2cnccn2)C3)cc1` registered an RP-LC retention time of 695 s.

Molecule `Cn1c(C2CCN(C(=O)Nc3cccc(Cl)c3)CC2)cc(=O)n2nccc12` showed an RP-LC retention time of 693 s.

`Cc1ccc(NC(=O)C2CCN(C(=O)c3ncn4c3COC(c3ccc(F)cc3)C4)CC2)c(F)c1` (stereo not drawn) registered an RP-LC retention time of 813 s.

`O=C(c1ccc(Br)o1)N1CCN=C1N1CCN(c2ccccc2F)CC1`: the RP-LC retention time worked out at 695 s.

`COc1ccc(-c2nnc(COc3ccc(NC(=O)c4cccnc4SC)cc3)o2)cc1` had an RP-LC retention time of 893 s.

With `CCOc1ccc(CNC(=O)C2CCN(c3cncnc3N3CCOCC3)CC2)cc1`, the RP-LC retention time came to 635 s.

The molecule `Cc1ccc(C)c(CNC(=O)c2ccc3c(c2)nc2n3CCN(C(C)C)C2=O)c1` gave an RP-LC retention time of 769 s.

In turn, `CCOc1ccc(N(CC)C(=O)C(=O)c2c[nH]c3ccccc23)cc1` returned an RP-LC retention time of 852 s.

With `COc1ccc(-c2nc(CN(c3ccccc3)S(=O)(=O)c3cccs3)c(C)o2)cc1OC`, the RP-LC retention time is 1040 s.

For `Cc1ccc(C)c(NC(=O)C2CCN(C(=O)c3ncn4c3COC(c3ccc(F)cc3)C4)CC2)c1` (stereo not drawn), the RP-LC retention time turned out to be 809 s.

In the case of `COc1ccc(OC)c(NC(=O)C2(c3cccs3)CCOCC2)c1`, the RP-LC retention time amounted to 917 s.

Turning to `Cc1cnc(C2CCC2)n1CCNC(=O)c1cc(C2CC2)[nH]n1`, the RP-LC retention time was found to be 586 s.

`COc1cccc(C(=O)Nc2cc(-c3ccccn3)no2)c1` came in with an RP-LC retention time of 788 s.

The molecule `O=C(Cn1c(-c2cnccn2)nc2ccccc21)N1CCN(c2ccccc2F)CC1` gave an RP-LC retention time of 750 s.

For the molecule `CCN1C(=O)C2(CCN(S(=O)(=O)c3ccc4c(c3)CCC4)CC2)c2ccccc21`, the RP-LC retention time worked out at 1170 s.

In turn, `O=C(CCc1c(-c2ccccc2)nc2ccccn12)Nc1ccccc1Br` showed an RP-LC retention time of 683 s.

For `COc1ccc(N2CCN(C(=O)c3cc(-c4ccncc4)cn3C)CC2)cc1`, the RP-LC retention time came out at 599 s.

As to `Cc1cccc(OCC(O)Cn2c(C3CC3)nc3ccccc32)c1` (stereo not drawn), the RP-LC retention time amounted to 685 s.

The molecule `CCNC(=O)C1CCN(c2nc3ccc(-c4cccnc4)nc3s2)CC1` returned an RP-LC retention time of 591 s.

`N#Cc1cnc(-c2ccc(F)cc2)n(CC(=O)Nc2ccc(C(F)(F)F)cc2)c1=O` returned an RP-LC retention time of 1040 s.

Regarding `CCc1onc(C)c1C1CCCN1C(=O)c1c(F)cccc1F` (stereo not drawn), the RP-LC retention time was determined as 788 s.

The molecule `O=C(C1CCCN(Cc2nc(-c3ccncc3)no2)C1)N1CCN(c2ncccn2)CC1` (stereo not drawn) had an RP-LC retention time of 559 s.

`Cc1nn(C(C)C(=O)NCCN2CCCCC2C)c(=O)c2c1sc1ccccc12` (stereo not drawn) registered an RP-LC retention time of 680 s.

With `O=C(CN1C(=O)S/C(=C\c2ccccc2)C1=O)NCCN1C(=O)CSC1=O`, the RP-LC retention time is 746 s.

`CCc1noc(-c2ccnc(-n3ncc(C(=O)NC4CC4)c3C)c2)n1` displayed an RP-LC retention time of 815 s.

`CNC(=O)C(=O)Nc1ccc(N(C)C)cc1` yielded an RP-LC retention time of 486 s.

The molecule `Cc1cccn2cc(C(=O)NCc3cccc(Cl)c3)nc12` had an RP-LC retention time of 777 s.

Molecule `COC(=O)c1ccccc1NC(=O)CSc1nccc(N2CCN(c3cccc(OC)c3)CC2)n1` showed an RP-LC retention time of 695 s.

With `CCc1ccc(C(=O)NCCc2nc3cccnc3n2C(C)C)cc1`, the RP-LC retention time came to 717 s.
